Drawing on paper PMC8991199, “Promiscuity mapping of the S100 protein family using a high-throughput holdup assay” (Scientific Reports, 2022), this text covers Kd for nine compounds.

Holding throughout (type): binding
The target of one assay is T1, S100A9 (Homo sapiens, UniProt P06702).
T1 sequence (P06702 1-114): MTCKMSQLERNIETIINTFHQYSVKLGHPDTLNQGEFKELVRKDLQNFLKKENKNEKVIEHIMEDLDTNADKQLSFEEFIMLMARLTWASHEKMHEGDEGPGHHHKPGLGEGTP
The experiment in a line: direct fluorescence polarization (FP), S100A9. The following applies: S100A9, 50 nM labeled foldamer, 20 mM HEPES pH 7.5, 150 mM NaCl, 1 mM CaCl2, 0.5 mM TCEP, 0.01% Tween20, quadratic fit, mean ± SEM, three technical repeats, threshold 1 mM. On the procedure: (§1) HTP (and also low-throughput) measurements generally need to be validated by an orthogonal approach to eliminate experimental artifacts. […] This way, we chose WL, IF, WW, YF, IL, VL, TW, RF, RR, TI, TM, and after resynthesizing with a fluorescent label at the C-terminus (Figs. S15–S26, Table S1), the S100ome was tested against the labeled foldamers by direct fluorescence polarization (FP) (Fig. 3A). In this assay, the association of the fluorescently labeled foldamer and the S100 protein of interest is monitored, through the change in polarization of the emitted light by the fluorophore upon the binding event. In direct FP, the presence of the fluorophore might change the binding affinity of some foldamers. […] Nevertheless, we assumed that the fluorophore would affect all foldamers that target the same binding site to the same degree, because the foldamer scaffold is rigid. Defining the threshold of detection at the dissociation constant of 1 mM, we identified 87 interactions between the selected foldamer fragments and the S100ome out of 220 possible interactions (Table 1, Fig. S4-14).
(§2) Briefly, S100 proteins were cloned into a modified pET15b vector with a TEV protease cleavable N-terminal His6-tag and expressed in Escherichia coli BL21 (DE3) cells, followed by Ni^2+-affinity chromatography. For HU assay, S100 proteins were further purified by either hydrophobic interaction chromatography or ion exchange chromatography without the cleavage of the N-terminal His6-tag applying standard conditions. For direct FP measurements, the N-terminal His6-tag was cleaved, and the S100 proteins were purified by hydrophobic interaction chromatography, ion exchange chromatography or size exclusion chromatography. The quality of the recombinant proteins was checked by SDS-PAGE analysis in all cases. The concentration of the recombinant S100 proteins was determined by UV spectrophotometry using the absorbance of Tyr and Trp residues.
(§3) In direct fluorescence polarization assays, S100 proteins were diluted in a buffer containing 50 nM labeled foldamer, 20 mM HEPES pH 7.5, 150 mM NaCl, 1 mM CaCl2, 0.5 mM TCEP and 0.01% Tween20. The dilution series (50 µl) were divided into three technical repeats and transferred (15 µl) to a 384-well microplate. In competitive fluorescence polarization assays, the buffer applied in direct measurements was supplemented with the S100 protein of interest to reach a saturation of 60–80%. This mixture was titrated with the competitor (i.e. the unlabeled peptide). Fluorescence polarization was measured in 8 different S100 concentrations (one of which contained no S100 protein) on a Synergy H4 plate reader using 485 ± 20 nm and 528 ± 20 nm band-pass filters for excitation and emission, respectively. The Kd values were obtained by fitting the data from the FP measurements with the python-based ProFit software using quadratic and competitive binding equation for direct and competitive FP, respectively. The detection threshold was based on two parameters. First, we rejected all fitted dissociation constants above 1 mM.
On the technique in general: Fluorescence polarisation rises when a labelled molecule tumbles more slowly, as on binding a larger partner.

The next assay concerns the target T2, S100A3 (Homo sapiens, UniProt P33764).
T2 sequence (P33764 1-101): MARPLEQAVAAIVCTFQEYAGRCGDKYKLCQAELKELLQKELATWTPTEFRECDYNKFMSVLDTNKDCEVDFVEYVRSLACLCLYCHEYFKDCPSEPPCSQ
Briefly: direct fluorescence polarization (FP), S100A3. The following applies: S100A3, 50 nM labeled foldamer, 20 mM HEPES pH 7.5, 150 mM NaCl, 1 mM CaCl2, 0.5 mM TCEP, 0.01% Tween20, quadratic fit, mean ± SEM, three technical repeats, threshold 1 mM. The procedure: as §1, §2, §3

For a further assay, the target named is T3, S100B (Homo sapiens, UniProt P04271).
T3 sequence (P04271 1-92): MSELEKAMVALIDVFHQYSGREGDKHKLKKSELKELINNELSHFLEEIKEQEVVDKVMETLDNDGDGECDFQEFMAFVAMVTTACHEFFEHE
Briefly: direct fluorescence polarization (FP), S100B. The following applies: 50 nM labeled foldamer, 20 mM HEPES pH 7.5, 150 mM NaCl, 1 mM CaCl2, 0.5 mM TCEP, 0.01% Tween20, quadratic fit, mean ± SEM, three technical repeats, threshold 1 mM. On the procedure:
as §1, §2, §3

Another assay deals with T4, S100G (Homo sapiens, UniProt P29377).
T4 sequence (P29377 2-79): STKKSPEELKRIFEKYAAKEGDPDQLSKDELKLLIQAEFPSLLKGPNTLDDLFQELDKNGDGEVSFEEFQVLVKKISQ
Briefly: direct fluorescence polarization (FP), S100G. The following applies: 50 nM labeled foldamer, 20 mM HEPES pH 7.5, 150 mM NaCl, 1 mM CaCl2, 0.5 mM TCEP, 0.01% Tween20, quadratic fit, mean ± SEM, three technical repeats, threshold 1 mM. The procedure:
as §1, §2, §3

Another assay has as its target T5, S100A16 (Homo sapiens, UniProt Q96FQ6).
T5 sequence (Q96FQ6 1-103): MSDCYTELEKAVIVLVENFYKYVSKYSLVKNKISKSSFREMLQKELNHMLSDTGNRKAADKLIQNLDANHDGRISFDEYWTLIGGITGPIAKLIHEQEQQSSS
The experiment in a line: direct fluorescence polarization (FP), S100A16. The following applies: S100A16, 50 nM labeled foldamer, 20 mM HEPES pH 7.5, 150 mM NaCl, 1 mM CaCl2, 0.5 mM TCEP, 0.01% Tween20, quadratic fit, mean ± SEM, three technical repeats, threshold 1 mM. On the procedure: as §1, §2, §3

Another assay deals with T6, S100Z (Homo sapiens, UniProt Q8WXG8).
T6 sequence (Q8WXG8 1-99): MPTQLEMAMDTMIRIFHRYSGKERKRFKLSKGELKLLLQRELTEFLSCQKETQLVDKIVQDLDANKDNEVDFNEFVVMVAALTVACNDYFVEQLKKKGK
Briefly: direct fluorescence polarization (FP), S100Z. The following applies: 50 nM labeled foldamer, 20 mM HEPES pH 7.5, 150 mM NaCl, 1 mM CaCl2, 0.5 mM TCEP, 0.01% Tween20, quadratic fit, mean ± SEM, three technical repeats, threshold 1 mM.
From the text: (§4) HTP (and also low-throughput) measurements generally need to be validated by an orthogonal approach to eliminate experimental artifacts. […] In this assay, the association of the fluorescently labeled foldamer and the S100 protein of interest is monitored, through the change in polarization of the emitted light by the fluorophore upon the binding event. In direct FP, the presence of the fluorophore might change the binding affinity of some foldamers. […] Nevertheless, we assumed that the fluorophore would affect all foldamers that target the same binding site to the same degree, because the foldamer scaffold is rigid.
as §2, §3

For a further assay, the target named is S100A10 (Homo sapiens, UniProt P60903). Briefly: direct fluorescence polarization (FP), S100A10. The following applies: S100A10, 50 nM labeled foldamer, 20 mM HEPES pH 7.5, 150 mM NaCl, 1 mM CaCl2, 0.5 mM TCEP, 0.01% Tween20, quadratic fit, mean ± SEM, three technical repeats, threshold 1 mM.
Chain of S100A10 (P60903 whole entry): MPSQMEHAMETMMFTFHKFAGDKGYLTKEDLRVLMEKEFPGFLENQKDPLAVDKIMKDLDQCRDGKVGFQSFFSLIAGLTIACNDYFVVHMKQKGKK
From the text: as §4, §2, §3

A value given as a limit tells only on which side of the number the result lay.

Regarding `C[C@@H](O)[C@@H](CC(=O)N[C@H]1CCCC[C@@H]1C(=O)N[C@H]1CCCC[C@@H]1C(=O)N[C@H](CC(=O)N[C@H]1CCCC[C@@H]1C(=O)NCC(=O)N[C@@H](CCCCNC(=O)c1ccc2c(c1)C1(OC2=O)c2ccc(O)cc2Oc2cc(O)ccc21)C(N)=O)Cc1c[nH]c2ccccc12)NC(=O)[C@H]1CCCC[C@@H]1N` [fTW], the Kd on S100A9 is above 1000 µM; on S100A3, above 1000 µM; on S100B, 280 ± 17 µM; at S100G, above 1000 µM; at S100A16 it was above 1000 µM.

As to `CSCC[C@@H](CC(=O)N[C@H]1CCCC[C@@H]1C(=O)NCC(=O)N[C@@H](CCCCNC(=O)c1ccc2c(c1)C1(OC2=O)c2ccc(O)cc2Oc2cc(O)ccc21)C(N)=O)NC(=O)[C@H]1CCCC[C@@H]1NC(=O)[C@H]1CCCC[C@@H]1NC(=O)C[C@@H](NC(=O)[C@H]1CCCC[C@@H]1N)[C@@H](C)O` [fTM], the Kd at S100A9, at S100A3, on S100Z, on S100A10, on S100B and at S100G was above 1000 µM in each case. Moreover, the Kd at S100A16 is above 1000 µM.

For `CC[C@H](C)[C@@H](CC(=O)N[C@H]1CCCC[C@@H]1C(=O)N[C@H]1CCCC[C@@H]1C(=O)N[C@H](CC(=O)N[C@H]1CCCC[C@@H]1C(=O)NCC(=O)N[C@@H](CCCCNC(=O)c1ccc2c(c1)C1(OC2=O)c2ccc(O)cc2Oc2cc(O)ccc21)C(N)=O)Cc1ccccc1)NC(=O)[C@H]1CCCC[C@@H]1N` [fIF], the Kd on S100A9 is above 1000 µM; on S100A3 it was 180 ± 8.4 µM; at S100Z, 480 ± 31 µM; on S100A10, 97 ± 2.5 µM; at S100B it was 140 ± 7.9 µM; on S100G it was above 1000 µM. The dissociation constant (Kd) at S100A16 is above 1000 µM.

On to `N=C(N)NCCC[C@@H](CC(=O)N[C@H]1CCCC[C@@H]1C(=O)N[C@H]1CCCC[C@@H]1C(=O)N[C@H](CC(=O)N[C@H]1CCCC[C@@H]1C(=O)NCC(=O)N[C@@H](CCCCNC(=O)c1ccc2c(c1)C1(OC2=O)c2ccc(O)cc2Oc2cc(O)ccc21)C(N)=O)Cc1ccccc1)NC(=O)[C@H]1CCCC[C@@H]1N` [fRF], for which the Kd is above 1000 µM on S100A9; above 1000 µM on S100A3; 890 ± 120 µM at S100Z; 320 ± 19 µM on S100A10; 230 ± 5.9 µM at S100B; above 1000 µM on S100G. The Kd at S100A16 was above 1000 µM.

For the compound `N=C(N)NCCC[C@@H](CC(=O)N[C@H]1CCCC[C@@H]1C(=O)NCC(=O)N[C@@H](CCCCNC(=O)c1ccc2c(c1)C1(OC2=O)c2ccc(O)cc2Oc2cc(O)ccc21)C(N)=O)NC(=O)[C@H]1CCCC[C@@H]1NC(=O)[C@H]1CCCC[C@@H]1NC(=O)C[C@H](CCCNC(=N)N)NC(=O)[C@H]1CCCC[C@@H]1N` [fRR], the dissociation constant (Kd) is above 1000 µM on S100A9; above 1000 µM at S100A3; above 1000 µM on S100Z; above 1000 µM on S100A10; 210 ± 26 µM on S100B; above 1000 µM on S100G. The Kd at S100A16 was above 1000 µM.

Take `NC(=O)[C@H](CCCCNC(=O)c1ccc2c(c1)C1(OC2=O)c2ccc(O)cc2Oc2cc(O)ccc21)NC(=O)CNC(=O)[C@H]1CCCC[C@@H]1NC(=O)C[C@H](Cc1c[nH]c2ccccc12)NC(=O)[C@H]1CCCC[C@@H]1NC(=O)[C@H]1CCCC[C@@H]1NC(=O)C[C@H](Cc1c[nH]c2ccccc12)NC(=O)[C@H]1CCCC[C@@H]1N` [fWW]: the equilibrium dissociation constant (Kd) on S100A9 is above 1000 µM; on S100A3, 310 ± 21 µM; at S100Z, above 1000 µM; on S100A10, 150 ± 5.2 µM; on S100B it was above 1000 µM; on S100G it was above 1000 µM. Further, on S100A16, the equilibrium dissociation constant (Kd) is above 1000 µM.

Regarding `CC(C)C[C@@H](CC(=O)N[C@H]1CCCC[C@@H]1C(=O)NCC(=O)N[C@@H](CCCCNC(=O)c1ccc2c(c1)C1(OC2=O)c2ccc(O)cc2Oc2cc(O)ccc21)C(N)=O)NC(=O)[C@H]1CCCC[C@@H]1NC(=O)[C@H]1CCCC[C@@H]1NC(=O)C[C@H](Cc1c[nH]c2ccccc12)NC(=O)[C@H]1CCCC[C@@H]1N` [fWL], the equilibrium dissociation constant (Kd) on S100A9 is above 1000 µM; on S100A3, above 1000 µM; on S100Z, above 1000 µM; on S100A10, 23 ± 0.7 µM; on S100B it was 11 ± 0.81 µM; at S100G, above 1000 µM. For the same compound, at S100A16, the Kd came to 304 ± 131 µM.

For the compound `CC[C@H](C)[C@@H](CC(=O)N[C@H]1CCCC[C@@H]1C(=O)NCC(=O)N[C@@H](CCCCNC(=O)c1ccc2c(c1)C1(OC2=O)c2ccc(O)cc2Oc2cc(O)ccc21)C(N)=O)NC(=O)[C@H]1CCCC[C@@H]1NC(=O)[C@H]1CCCC[C@@H]1NC(=O)C[C@@H](NC(=O)[C@H]1CCCC[C@@H]1N)[C@@H](C)O` [fTI], the equilibrium dissociation constant (Kd) at S100A9, on S100A3, on S100Z, on S100A10, at S100B and on S100G was above 1000 µM each time. The dissociation constant (Kd) on S100A16 is above 1000 µM.

With `CC(C)C[C@@H](CC(=O)N[C@H]1CCCC[C@@H]1C(=O)NCC(=O)N[C@@H](CCCCNC(=O)c1ccc2c(c1)C1(OC2=O)c2ccc(O)cc2Oc2cc(O)ccc21)C(N)=O)NC(=O)[C@H]1CCCC[C@@H]1NC(=O)[C@H]1CCCC[C@@H]1NC(=O)C[C@@H](NC(=O)[C@H]1CCCC[C@@H]1N)C(C)C` [fVL], the dissociation constant (Kd) is above 1000 µM on S100A9; above 1000 µM at S100A3; above 1000 µM on S100Z; 110 ± 5.5 µM at S100A10; 50 ± 6.4 µM at S100B; above 1000 µM at S100G. In addition, the Kd on S100A16 is above 1000 µM.

Usually Kd stands for the equilibrium constant for the complex coming apart.
